Assay results from patent US20240368163A1, “COMPOUNDS AND METHODS FOR MODULATING SPLICING” (REMIX THERAPEUTICS INC., priority 2021, published 2024).

What was measured:
Type in all cases: cell-based, human
[1] = system: MYB; assay: Splicing RT-qPCR assay, MYB mRNA canonical junction (CJ) and alternative junction (AJ); settings: Homo sapiens; for AC50: increase in AJ mRNA
In short: (§1)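 First, A673 cells adhered 24 h, while K562 cells were plated directly. Next, compounds were added as an 11-point 3-fold series from 10 uM for 24 h. Finally, lysates went to RT-qPCR, with 2^(−ΔΔCt) values converted to percentage response.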

[2] = system: Target C; assay: Splicing RT-qPCR panel, Target C canonical junction (CJ) mRNA; settings: Homo sapiens, RT-qPCR panel, canonical junction mRNA; compound concentration having 50% response in CJ decrease; read-out: Target C IC50 (decrease in CJ mRNA levels)
In short: as §1

[3] = system: Target C; assay: HiBiT protein abundance assay, Target C; settings: Homo sapiens, K562, 24 h, Table 13A, modified K562 cells
In short: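 Target protein levels in engineered HiBiT-tagged cells were read by lytic luminescence after 24 h compound exposure (10000 cells/well, 10 μM top final, 3-fold steps, ≤0.25% DMSO). Unmodified K562 served as baseline; four-parameter regression gave concentration reducing abundance to 50%.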

[4] = system: MYB; assay: HiBiT protein abundance assay, MYB; settings: Homo sapiens, K562, 24 h, Table 13A, modified K562 cells
In short: (§2)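 Protein abundance measured by Nano-Glo HiBiT lytic luminescence after 24 h compound exposure of modified K562 lines, 10000 cells/well, top final dose 10 μM in 3-fold steps. Four-parameter fit of control-normalised response gives concentration reducing abundance to 50% of untreated.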

[5] = system: SMN2; assay: Splicing RT-qPCR panel, SMN2 canonical junction (CJ) mRNA; settings: Homo sapiens, RT-qPCR panel, canonical junction mRNA; compound concentration having 50% response in CJ decrease; read-out: SMN2 IC50 (decrease in CJ mRNA levels)
In short: as §1

[6] = system: HTT; assay: Splicing RT-qPCR assay, HTT mRNA canonical junction (CJ) and alternative junction (AJ); settings: Homo sapiens; for AC50: increase in AJ mRNA
In short: as §1

[7] = system: HTT; assay: HiBiT protein abundance assay, HTT; settings: Homo sapiens, K562, 24 h, Table 13A, modified K562 cells
In short: as §2

[8] = 24 h, decrease in CJ mRNA, A673 or K562 cells, 24 hours treatment, RT-qPCR, read-out: MYB CJ IC50
[9] = 24 h, A673 or K562 cells, 24 hours treatment, RT-qPCR
[10] = RT-qPCR panel, canonical junction mRNA, compound concentration having 50% response in CJ decrease, read-out: MYB IC50 (decrease in CJ mRNA levels)
[11] = 24 h, decrease in CJ mRNA, A673 or K562 cells, 24 hours treatment, RT-qPCR, read-out: HTT CJ IC50
[12] = RT-qPCR panel, canonical junction mRNA, compound concentration having 50% response in CJ decrease, read-out: HTT IC50 (decrease in CJ mRNA levels)

SMILES	IC50 [1, 8] [nM]	AC50 [1, 9] [nM]	IC50 [1, 10] [nM]	IC50 [2] [nM]	IC50 [3] [nM]	IC50 [4] [nM]	IC50 [5] [nM]	IC50 [6, 11] [nM]	AC50 [6, 9] [nM]	IC50 [6, 12] [nM]	IC50 [7] [nM]
c1nc2c(-c3cn[nH]c3)ccc(-c3ccc(N4CCC45CCNC5)nn3)c2s1 (stereo not drawn) [Compound 277]	> 10000	> 10000	> 10000	> 10000	1000 to 10000	1000 to 10000	> 10000	> 10000	> 10000	> 10000	> 10000
c1cnn(-c2ccc(-c3ccc(N[C@@H]4C[C@H]5CC[C@@H](C4)N5)nn3)c3[nH]ncc23)c1 [Compound 278]	100 to 1000	100 to 1000	100 to 1000	100 to 1000	< 100	100 to 1000	< 100	–	100 to 1000	< 100	< 100
CN(c1ccc(-c2ccc(-c3ccn(C)c(=O)c3)c3ncsc23)nn1)C1CC(C)(C)NC(C)(C)C1 [Compound 279]	1000 to 10000	> 10000	1000 to 10000	> 10000	1000 to 10000	1000 to 10000	100 to 1000	1000 to 10000	1000 to 10000	1000 to 10000	1000 to 10000
COc1cc(-c2ccc(-c3ccc(N(C)C4CC(C)(C)NC(C)(C)C4)nn3)c3scnc23)ccn1 [Compound 280]	1000 to 10000	1000 to 10000	1000 to 10000	1000 to 10000	100 to 1000	100 to 1000	100 to 1000	100 to 1000	100 to 1000	100 to 1000	< 100
CN(c1ccc(-c2ccc(-c3ccc(=O)n(C)c3)c3ncsc23)nn1)C1CC(C)(C)NC(C)(C)C1 [Compound 281]	1000 to 10000	> 10000	1000 to 10000	> 10000	1000 to 10000	1000 to 10000	100 to 1000	> 10000	> 10000	> 10000	1000 to 10000
c1nc2c(-c3cn[nH]c3)ccc(-c3ccc(N(C4CCNCC4)C4CC4)nn3)c2s1 [Compound 283]	> 10000	> 10000	> 10000	1000 to 10000	1000 to 10000	100 to 1000	1000 to 10000	1000 to 10000	1000 to 10000	1000 to 10000	1000 to 10000
CC1(C)CC(N(c2ccc(-c3ccc(-c4cn[nH]c4)c4ncsc34)nn2)C2CC2)CC(C)(C)N1 [Compound 284]	100 to 1000	> 10000	100 to 1000	1000 to 10000	1000 to 10000	100 to 1000	100 to 1000	100 to 1000	100 to 1000	100 to 1000	100 to 1000
CN(C)[C@H]1[C@@H]2CN(c3ccc(-c4ccc(-c5cn[nH]c5)c5ncsc45)nn3)C[C@@H]21 [Compound 285]	> 10000	> 10000	> 10000	> 10000	> 10000	1000 to 10000	100 to 1000	> 10000	1000 to 10000	> 10000	1000 to 10000
CN1CCC12CCN(c1ccc(-c3ccc(-c4cn[nH]c4)c4ncsc34)nn1)C2 (stereo not drawn) [Compound 287]	> 10000	> 10000	> 10000	> 10000	1000 to 10000	100 to 1000	100 to 1000	> 10000	> 10000	> 10000	1000 to 10000
CN1CCCC2(CCN2c2ccc(-c3ccc(-c4cn[nH]c4)c4ncsc34)nn2)C1 (stereo not drawn) [Compound 288]	> 10000	> 10000	> 10000	> 10000	1000 to 10000	100 to 1000	1000 to 10000	> 10000	> 10000	> 10000	1000 to 10000
CN1CCC2(CC1)CCN2c1ccc(-c2ccc(-c3cn[nH]c3)c3ncsc23)nn1 [Compound 289]	1000 to 10000	> 10000	1000 to 10000	> 10000	> 10000	100 to 1000	> 10000	> 10000	> 10000	> 10000	1000 to 10000
[2H]C([2H])([2H])N(c1ccc(-c2ccc(-c3cn[nH]c3)c3cn[nH]c23)nn1)C1CC(C)(C)NC(C)(C)C1 [Compound 292]	100 to 1000	1000 to 10000	100 to 1000	1000 to 10000	100 to 1000	100 to 1000	< 100	100 to 1000	100 to 1000	100 to 1000	100 to 1000
CCN(c1ccc(-c2ccc(-c3cn[nH]c3)c3cn[nH]c23)nn1)C1CC(C)(C)NC(C)(C)C1 [Compound 293]	1000 to 10000	> 10000	1000 to 10000	> 10000	1000 to 10000	1000 to 10000	100 to 1000	1000 to 10000	1000 to 10000	1000 to 10000	1000 to 10000
CN(c1ccc(-c2ccc(-c3cn[nH]c3)c3cn[nH]c23)nn1)[C@@H]1C[C@H]2CCC[C@@H](C1)N2 [Compound 295]	< 100	100 to 1000	< 100	< 100	< 100	< 100	< 100	–	< 100	< 100	< 100
[2H]C([2H])([2H])N(c1ccc(-c2ccc(-c3cn[nH]c3)c3cn[nH]c23)nn1)[C@@H]1C[C@H]2CCC[C@@H](C1)N2 [Compound 296]	100 to 1000	< 100	100 to 1000	< 100	< 100	< 100	< 100	–	< 100	< 100	< 100
